Drawing on PubChem BioAssay AID330 (DTP/NCI, 2004), this text covers T/C for 21 molecules.

Where “and” joins values, the source holds several entries; their conditions need not be identical. Identical values can stand only once. Toxic doses and inconclusive results are not listed.

This assay has as its system P388 leukemia ip, CD2F1 mice, survival T/C. Nature of the assay: NCI In Vivo Anticancer Drug Screen. Data for tumor model P388 Leukemia (intraperitoneal) in CD2F1 (CDF1) mice. The following applies: endpoint: median survival time, higher = longer survival. Summed up:
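Mice carrying the transplanted tumor received test compound or vehicle. Survival was recorded in each group, and the value is the treated-group measurement divided by that of the vehicle-treated control group.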

Setting [1] is: dose: 50.0 mg/kg/injection, schedule: Q01DX009 (ip), vehicle: saline with Tween-80.
[2] abbreviates: dose: 100.0 mg/kg/injection, schedule: Q01DX009 (ip), vehicle: saline with Tween-80.
Where [3] appears, read: dose: 200.0 mg/kg/injection, schedule: Q01DX009 (ip), vehicle: saline with Tween-80.
Setting [4] is: dose: 60.0 mg/kg/injection, schedule: Q01DX005 (ip), vehicle: saline with Tween-80.
[5] abbreviates: dose: 120.0 mg/kg/injection, schedule: Q01DX005 (ip), vehicle: saline with Tween-80.
Where [6] appears, read: dose: 240.0 mg/kg/injection, schedule: Q01DX005 (ip), vehicle: saline with Tween-80.
The mark [7] stands for this setting: dose: 50.0 mg/kg/injection, schedule: Q01DX005 (ip), vehicle: saline with Tween-80.
[8] abbreviates: dose: 100.0 mg/kg/injection, schedule: Q01DX005 (ip), vehicle: saline with Tween-80.
Setting [9] is: dose: 200.0 mg/kg/injection, schedule: Q01DX005 (ip), vehicle: saline with Tween-80.
The mark [10] stands for this setting: dose: 50.0 mg/kg/injection, schedule: Q01DX009 (ip), vehicle: Klucel (hydroxypropylcellulose) (HPC).
Where [11] appears, read: dose: 100.0 mg/kg/injection, schedule: Q01DX009 (ip), vehicle: Klucel (hydroxypropylcellulose) (HPC).
The mark [12] stands for this setting: dose: 200.0 mg/kg/injection, schedule: Q01DX009 (ip), vehicle: Klucel (hydroxypropylcellulose) (HPC).
The mark [13] stands for this setting: dose: 100.0 mg/kg/injection, schedule: Q01DX001 (ip), vehicle: saline with Tween-80.

Take `C=CCSC(=NC#N)SC`: the T/C by setting is: (dose: 3.12 mg/kg/injection, schedule: Q01DX005 (ip), vehicle: Klucel (hydroxypropylcellulose) (HPC)) 101 % of control; (dose: 6.25 mg/kg/injection, schedule: Q01DX005 (ip), vehicle: Klucel (hydroxypropylcellulose) (HPC)) 101 % of control; (dose: 12.5 mg/kg/injection, schedule: Q01DX005 (ip), vehicle: Klucel (hydroxypropylcellulose) (HPC)) 107 % of control.

Regarding `COC(=O)C(N)Cc1cn(Cc2ccccc2)cn1` (stereo not given), the T/C under setting [1] was 95 % of control, the T/C under setting [2] was 96 % of control and the T/C under setting [3] is 96 % of control.

With `CC(=O)c1oc2cc([N+](=O)[O-])c3ccccc3c2c1C`, the T/C is 107 % of control under setting [4], 98 % of control under setting [5] and 88 % of control under setting [6].

On to `Cc1ncc(S(=O)(=O)Cc2ccc3c(c2)OCO3)c(N)n1`, for which the T/C (dose: 100.0 mg/kg/injection, schedule: Q01DX001 (ip), vehicle: saline) is 96 % of control; the T/C (dose: 200.0 mg/kg/injection, schedule: Q01DX001 (ip), vehicle: saline) is 95 % of control; the T/C (dose: 400.0 mg/kg/injection, schedule: Q01DX001 (ip), vehicle: saline) was 95 % of control.

As to `Cc1ccc(S(=O)(=O)NC(=O)C#CCOC2CCCCO2)cc1` (stereo not given), the T/C is, setting by setting: under setting [7], 103 % of control and 122 % of control; under setting [8], 111 % of control and 112 % of control; under setting [9], 112 % of control and 123 % of control.

On to `NC(=O)C(N)CCc1ccccc1` (stereo not given), for which the T/C reads like this: under setting [4], 100 % of control; under setting [5], 102 % of control; under setting [6], 96 % of control.

For `CCCCN1C(=O)C(=O)N(Cc2ccco2)C1=O`, the T/C by setting is: under setting [10], 98 % of control; under setting [11], 104 % of control; under setting [12], 106 % of control.

Turning to `OCc1ccn2c1CCC2`, the T/C runs as follows: (dose: 6.25 mg/kg/injection, schedule: Q01DX009 (ip), vehicle: water) 107 % of control; (dose: 12.5 mg/kg/injection, schedule: Q01DX009 (ip), vehicle: water) 109 % of control; (dose: 25.0 mg/kg/injection, schedule: Q01DX009 (ip), vehicle: water) 110 % of control; (dose: 50.0 mg/kg/injection, schedule: Q01DX009 (ip), vehicle: water) 115 % of control; (dose: 100.0 mg/kg/injection, schedule: Q01DX009 (ip), vehicle: water) 109 % of control.

Regarding `CN(C)c1n[nH]c(N)n1`, the T/C is 101 % of control (dose: 12.5 mg/kg/injection, schedule: Q01DX009 (ip), vehicle: saline); 103 % of control (dose: 25.0 mg/kg/injection, schedule: Q01DX009 (ip), vehicle: saline); 108 % of control and 95 % of control and 97 % of control (dose: 50.0 mg/kg/injection, schedule: Q01DX009 (ip), vehicle: saline); 103 % of control and 104 % of control and 108 % of control (dose: 100.0 mg/kg/injection, schedule: Q01DX009 (ip), vehicle: saline); 105 % of control and 97 % of control (dose: 200.0 mg/kg/injection, schedule: Q01DX009 (ip), vehicle: saline); 105 % of control and 111 % of control and 113 % of control (dose: 400.0 mg/kg/injection, schedule: Q01DX009 (ip), vehicle: saline).

As for `CC(C)(C)C(=O)OC/C=C\COC(=O)c1ccccc1`, the T/C reads like this: (dose: 25.0 mg/kg/injection, schedule: Q01DX009 (ip), vehicle: Klucel (hydroxypropylcellulose) (HPC)) 101 % of control; under setting [10], 104 % of control and 95 % of control and 96 % of control; under setting [11], 103 % of control and 104 % of control and 122 % of control; under setting [12], 111 % of control.

As to `Brc1ccc2nc3ccccc3c(SCCCCCCSc3c4ccccc4nc4ccc(Br)cc34)c2c1`, the T/C is, setting by setting: (dose: 60.0 mg/kg/injection, schedule: Q01DX005 (ip), vehicle: Klucel (hydroxypropylcellulose) (HPC)) 87 % of control and 93 % of control; (dose: 120.0 mg/kg/injection, schedule: Q01DX005 (ip), vehicle: Klucel (hydroxypropylcellulose) (HPC)) 89 % of control; (dose: 240.0 mg/kg/injection, schedule: Q01DX005 (ip), vehicle: Klucel (hydroxypropylcellulose) (HPC)) 91 % of control.

Turning to `C=Cc1ccc2cccc(O)c2n1`, the T/C (dose: 25.0 mg/kg/injection, schedule: Q01DX001 (ip), vehicle: saline with Tween-80) was 106 % of control; the T/C (dose: 50.0 mg/kg/injection, schedule: Q01DX001 (ip), vehicle: saline with Tween-80) was 106 % of control; the T/C under setting [13] is 89 % of control and 94 % of control.

As to `COC(=O)c1ccccc1NC(=NC(C)(C)C)c1ccccc1`, the T/C reads like this: under setting [1], 98 % of control; under setting [2], 98 % of control; under setting [3], 91 % of control.

For `O=C(O)C1OC1C(=O)O` (stereo not given), the T/C (dose: 75.0 mg/kg/injection, schedule: Q04DX003 (ip), vehicle: saline) was 100 % of control; the T/C (dose: 150.0 mg/kg/injection, schedule: Q04DX003 (ip), vehicle: saline) is 100 % of control; the T/C (dose: 300.0 mg/kg/injection, schedule: Q04DX003 (ip), vehicle: saline) is 100 % of control.

Regarding `O=S1(=O)CC(N2CCCCC2)C2=C(O1)c1ccccc1SC2` (stereo not given), the T/C is 88 % of control under setting [1] and 92 % of control under setting [2].

As to `O=C1N(Cc2ccccc2)CCN1Cc1ccccc1`, the T/C was 95 % of control (dose: 50.0 mg/kg/injection, schedule: Q01DX005 (ip), vehicle: Klucel (hydroxypropylcellulose) (HPC)); 94 % of control (dose: 100.0 mg/kg/injection, schedule: Q01DX005 (ip), vehicle: Klucel (hydroxypropylcellulose) (HPC)); 104 % of control (dose: 200.0 mg/kg/injection, schedule: Q01DX005 (ip), vehicle: Klucel (hydroxypropylcellulose) (HPC)).

Consider `C=CCc1cc2c(cc1Cc1ccc(OC)cc1)OCO2`, for which the T/C runs as follows: (dose: 50.0 mg/kg/injection, schedule: Q01DX005 (ip), vehicle: distilled water + alcohol) 109 % of control; (dose: 100.0 mg/kg/injection, schedule: Q01DX005 (ip), vehicle: distilled water + alcohol) 104 % of control; (dose: 200.0 mg/kg/injection, schedule: Q01DX005 (ip), vehicle: distilled water + alcohol) 109 % of control.

Regarding `Cc1cc(N=Nc2ccc(NC(=O)c3ccc(N)cc3)cc2C)ccc1N=Nc1ccc2cc(S(=O)(=O)O)cc(S(=O)(=O)O)c2c1`, the T/C by setting is: under setting [7], 97 % of control; (dose: 50.0 mg/kg/injection, schedule: Q01DX005 (ip), vehicle: saline) 107 % of control; (dose: 50.0 mg/kg/injection, schedule: Q01DX005 (ip), vehicle: suspension in saline) 101 % of control; under setting [8], 90 % of control; (dose: 100.0 mg/kg/injection, schedule: Q01DX005 (ip), vehicle: saline) 121 % of control; (dose: 100.0 mg/kg/injection, schedule: Q01DX005 (ip), vehicle: suspension in saline) 111 % of control. Besides, the T/C is 113 % of control under setting [9]; 121 % of control (dose: 200.0 mg/kg/injection, schedule: Q01DX005 (ip), vehicle: saline); 113 % of control (dose: 200.0 mg/kg/injection, schedule: Q01DX005 (ip), vehicle: suspension in saline); 109 % of control (dose: 400.0 mg/kg/injection, schedule: Q01DX005 (ip), vehicle: saline with Tween-80).

For `[Co+2].[O-]c1cc2ccccc2cc1/C=N/c1ccccn1.[O-]c1cc2ccccc2cc1/C=N/c1ccccn1.[OH3+].[OH3+]`, the T/C reads like this: (dose: 12.5 mg/kg/injection, schedule: Q04DX002 (ip), vehicle: saline with Tween-80) 93 % of control; (dose: 25.0 mg/kg/injection, schedule: Q04DX002 (ip), vehicle: saline with Tween-80) 91 % of control; (dose: 50.0 mg/kg/injection, schedule: Q04DX002 (ip), vehicle: saline with Tween-80) 88 % of control.

Consider `Cn1c2ccccc2c2nnc(N/N=C/c3ccc([N+](=O)[O-])o3)nc21`, for which the T/C was 90 % of control under setting [13]; 91 % of control (dose: 200.0 mg/kg/injection, schedule: Q01DX001 (ip), vehicle: saline with Tween-80); 96 % of control (dose: 400.0 mg/kg/injection, schedule: Q01DX001 (ip), vehicle: saline with Tween-80).

On to `CCC1(O)CC(OC2CC(N(C)C)C(OC3CC(O)C(OC4CCC(=O)C(C)O4)C(C)O3)C(C)O2)c2c(cc3c(c2O)C(=O)c2c(O)ccc(O)c2C3=O)C1C(=O)OC` (stereo not given), for which the T/C is 178 % of control (dose: 0.78 mg/kg/injection, schedule: Q01DX009 (ip), vehicle: saline with Tween-80); 241 % of control (dose: 1:4.0 dilution, schedule: Q01DX009 (ip), vehicle: saline); 190 % of control (dose: 1:8.0 dilution, schedule: Q01DX009 (ip), vehicle: saline).
